Assay results reported in ChEMBL document CHEMBL3885881, “DrugMatrix”.

Organism: Rattus norvegicus
Assay: DrugMatrix - Regimen: Daily Repeat
Type: toxicity, organism-based, Sprague-Dawley
Design: regimen Daily Repeat, gender Male, age 6-8 weeks
Details: in vivo, ip, route intraperitoneal, vehicle 100 % SALINE; for ALANINE AMINOTRANSFERASE / ALBUMIN / ALKALINE PHOSPHATASE / ASPARTATE AMINOTRANSFERASE / BLOOD UREA NITROGEN / CARBON DIOXIDE / CHLORIDE / CHOLESTEROL / CREATINE PHOSPHOKINASE / CREATININE / GLUCOSE / LACTATE DEHYDROGENASE / LIPASE / PHOSPHORUS / POTASSIUM / SODIUM / TOTAL BILIRUBIN / TOTAL PROTEIN / URIC ACID: tissue Plasma; for ABSOLUTE BASOPHIL / ABSOLUTE EOSINOPHIL / ABSOLUTE LYMPHOCYTE / ABSOLUTE MONOCYTE / ABSOLUTE SEGMENTED NEUTROPHIL / BASOPHIL / EOSINOPHIL / ERYTHROCYTE COUNT / HEMATOCRIT / HEMOGLOBIN / LEUKOCYTE COUNT / LYMPHOCYTE / MEAN CORPUSCULAR HEMOGLOBIN / MEAN CORPUSCULAR HEMOGLOBIN CONCENTRATION / MEAN CORPUSCULAR VOLUME / MONOCYTE / NEUTROPHIL / NUCLEATED RED BLOOD CELLS / PLATELET COUNT: tissue Blood
[1] = 16 mg/kg, […], dose level Low, time 7 day
[2] = 25 mg/kg, 72 h, dose level M1, time 3 day
[3] = 25 mg/kg, […], dose level M1, time 7 day
[4] = 32 mg/kg, 72 h, dose level High, time 3 day
[5] = 32 mg/kg, 120 h, dose level High, time 5 day

C=CCO [ALLYL ALCOHOL]
ALANINE AMINOTRANSFERASE [1]: 80.83 u/L
ALBUMIN [1]: 4.13 G/DL
ALKALINE PHOSPHATASE [1]: 183 u/L
ASPARTATE AMINOTRANSFERASE [1]: 104.33 u/L
BLOOD UREA NITROGEN [1]: 16.67 mg/dL
CARBON DIOXIDE [1]: 32.17 mmol/L
CHLORIDE [1]: 100.67 MEQ/L
CHOLESTEROL [1]: 73.5 mg/dL
CREATINE PHOSPHOKINASE [1]: 256 u/L
CREATININE [1]: 0.27 mg/dL
GLUCOSE [1]: 141 mg/dL
LACTATE DEHYDROGENASE [1]: 96.17 u/L
LIPASE [1]: 10.5 u/L
PHOSPHORUS [1]: 10.28 mg/dL
POTASSIUM [1]: 5.47 MEQ/L
SODIUM [1]: 142.65 MEQ/L
TOTAL BILIRUBIN [1]: 0.12 mg/dL
TOTAL PROTEIN [1]: 6.32 G/DL
URIC ACID [1]: 0.65 mg/dL
ABSOLUTE BASOPHIL [2]: 0 CELLS/uL
ABSOLUTE EOSINOPHIL [2]: 43.33 CELLS/uL
ABSOLUTE LYMPHOCYTE [2]: 12346.17 CELLS/uL
ABSOLUTE MONOCYTE [2]: 299.67 CELLS/uL
ABSOLUTE SEGMENTED NEUTROPHIL [2]: 1244.17 CELLS/uL
BASOPHIL [2]: 0%
EOSINOPHIL [2]: 0.33%
ERYTHROCYTE COUNT [2]: 5.36 x10E6/uL
HEMATOCRIT [2]: 34.17%
HEMOGLOBIN [2]: 13.52 G/DL
LEUKOCYTE COUNT [2]: 13.93 x10E3/uL
LYMPHOCYTE [2]: 88.17%
MEAN CORPUSCULAR HEMOGLOBIN [2]: 25.25 pg
MEAN CORPUSCULAR HEMOGLOBIN CONCENTRATION [2]: 39.62 G/DL
MEAN CORPUSCULAR VOLUME [2]: 63.8 fL
MONOCYTE [2]: 2.17%
NEUTROPHIL [2]: 9.33%
NUCLEATED RED BLOOD CELLS [2]: 0 /100WBC
PLATELET COUNT [2]: 1124.67 x10E3/uL
ALANINE AMINOTRANSFERASE [2]: 46.67 u/L
ALBUMIN [2]: 4 G/DL
ALKALINE PHOSPHATASE [2]: 230.83 u/L
ASPARTATE AMINOTRANSFERASE [2]: 67.33 u/L
BLOOD UREA NITROGEN [2]: 11.17 mg/dL
CARBON DIOXIDE [2]: 32.67 mmol/L
CHLORIDE [2]: 102 MEQ/L
CHOLESTEROL [2]: 77.17 mg/dL
CREATINE PHOSPHOKINASE [2]: 229.5 u/L
CREATININE [2]: 0.39 mg/dL
GLUCOSE [2]: 137 mg/dL
LACTATE DEHYDROGENASE [2]: 101.67 u/L
LIPASE [2]: 8.33 u/L
PHOSPHORUS [2]: 9.72 mg/dL
POTASSIUM [2]: 5.84 MEQ/L
SODIUM [2]: 141.88 MEQ/L
TOTAL BILIRUBIN [2]: 0.17 mg/dL
TOTAL PROTEIN [2]: 6.07 G/DL
URIC ACID [2]: 1.12 mg/dL
ABSOLUTE BASOPHIL [3]: 0 CELLS/uL
ABSOLUTE EOSINOPHIL [3]: 65.67 CELLS/uL
ABSOLUTE LYMPHOCYTE [3]: 7275.5 CELLS/uL
ABSOLUTE MONOCYTE [3]: 150.67 CELLS/uL
ABSOLUTE SEGMENTED NEUTROPHIL [3]: 874.83 CELLS/uL
BASOPHIL [3]: 0%
EOSINOPHIL [3]: 0.67%
ERYTHROCYTE COUNT [3]: 5.49 x10E6/uL
HEMATOCRIT [3]: 34.07%
HEMOGLOBIN [3]: 13.33 G/DL
LEUKOCYTE COUNT [3]: 8.37 x10E3/uL
LYMPHOCYTE [3]: 87.67%
MEAN CORPUSCULAR HEMOGLOBIN [3]: 24.3 pg
MEAN CORPUSCULAR HEMOGLOBIN CONCENTRATION [3]: 39.13 G/DL
MEAN CORPUSCULAR VOLUME [3]: 62.12 fL
MONOCYTE [3]: 1.83%
NEUTROPHIL [3]: 9.83%
NUCLEATED RED BLOOD CELLS [3]: 0 /100WBC
PLATELET COUNT [3]: 1389.83 x10E3/uL
ALANINE AMINOTRANSFERASE [3]: 80.83 u/L
ALBUMIN [3]: 4.2 G/DL
ALKALINE PHOSPHATASE [3]: 232.83 u/L
ASPARTATE AMINOTRANSFERASE [3]: 88.17 u/L
BLOOD UREA NITROGEN [3]: 15 mg/dL
CARBON DIOXIDE [3]: 31.33 mmol/L
CHLORIDE [3]: 101 MEQ/L
CHOLESTEROL [3]: 66.5 mg/dL
CREATINE PHOSPHOKINASE [3]: 274.5 u/L
CREATININE [3]: 0.28 mg/dL
GLUCOSE [3]: 136.67 mg/dL
LACTATE DEHYDROGENASE [3]: 97 u/L
LIPASE [3]: 10.5 u/L
PHOSPHORUS [3]: 9.85 mg/dL
POTASSIUM [3]: 5.63 MEQ/L
SODIUM [3]: 144.45 MEQ/L
TOTAL BILIRUBIN [3]: 0.1 mg/dL
TOTAL PROTEIN [3]: 6.35 G/DL
URIC ACID [3]: 0.85 mg/dL
ABSOLUTE BASOPHIL [4]: 0 CELLS/uL
ABSOLUTE EOSINOPHIL [4]: 16 CELLS/uL
ABSOLUTE LYMPHOCYTE [4]: 7549.2 CELLS/uL
ABSOLUTE MONOCYTE [4]: 147.6 CELLS/uL
ABSOLUTE SEGMENTED NEUTROPHIL [4]: 1267.2 CELLS/uL
BASOPHIL [4]: 0%
EOSINOPHIL [4]: 0.2%
ERYTHROCYTE COUNT [4]: 5.74 x10E6/uL
HEMATOCRIT [4]: 34.96%
HEMOGLOBIN [4]: 13.16 G/DL
LEUKOCYTE COUNT [4]: 8.98 x10E3/uL
LYMPHOCYTE [4]: 84%
MEAN CORPUSCULAR HEMOGLOBIN [4]: 22.98 pg
MEAN CORPUSCULAR HEMOGLOBIN CONCENTRATION [4]: 37.66 G/DL
MEAN CORPUSCULAR VOLUME [4]: 61.06 fL
MONOCYTE [4]: 1.6%
NEUTROPHIL [4]: 14.2%
NUCLEATED RED BLOOD CELLS [4]: 0 /100WBC
PLATELET COUNT [4]: 945 x10E3/uL
ALANINE AMINOTRANSFERASE [4]: 456.4 u/L
ALBUMIN [4]: 3.86 G/DL
ALKALINE PHOSPHATASE [4]: 444.6 u/L
ASPARTATE AMINOTRANSFERASE [4]: 939.2 u/L
BLOOD UREA NITROGEN [4]: 15.6 mg/dL
CARBON DIOXIDE [4]: 28.24 mmol/L
CHLORIDE [4]: 98.33 MEQ/L
CHOLESTEROL [4]: 70.6 mg/dL
CREATINE PHOSPHOKINASE [4]: 527.8 u/L
CREATININE [4]: 0.2 mg/dL
GLUCOSE [4]: 138.2 mg/dL
LACTATE DEHYDROGENASE [4]: 186.6 u/L
LIPASE [4]: 9.25 u/L
PHOSPHORUS [4]: 9.34 mg/dL
POTASSIUM [4]: 5.07 MEQ/L
SODIUM [4]: 143.03 MEQ/L
TOTAL BILIRUBIN [4]: 0.2 mg/dL
TOTAL PROTEIN [4]: 5.94 G/DL
URIC ACID [4]: 0.58 mg/dL
ABSOLUTE BASOPHIL [5]: 0 CELLS/uL
ABSOLUTE EOSINOPHIL [5]: 0 CELLS/uL
ABSOLUTE LYMPHOCYTE [5]: 8954.4 CELLS/uL
ABSOLUTE MONOCYTE [5]: 236 CELLS/uL
ABSOLUTE SEGMENTED NEUTROPHIL [5]: 1769.6 CELLS/uL
BASOPHIL [5]: 0%
EOSINOPHIL [5]: 0%
ERYTHROCYTE COUNT [5]: 5.51 x10E6/uL
HEMATOCRIT [5]: 33.82%
HEMOGLOBIN [5]: 12.86 G/DL
LEUKOCYTE COUNT [5]: 10.96 x10E3/uL
LYMPHOCYTE [5]: 81.4%
MEAN CORPUSCULAR HEMOGLOBIN [5]: 23.36 pg
MEAN CORPUSCULAR HEMOGLOBIN CONCENTRATION [5]: 38.08 G/DL
MEAN CORPUSCULAR VOLUME [5]: 61.42 fL
MONOCYTE [5]: 2.2%
NEUTROPHIL [5]: 16.4%
NUCLEATED RED BLOOD CELLS [5]: 0 /100WBC
PLATELET COUNT [5]: 1673 x10E3/uL
ALANINE AMINOTRANSFERASE [5]: 57.8 u/L
ALBUMIN [5]: 4.32 G/DL
ALKALINE PHOSPHATASE [5]: 372.6 u/L
ASPARTATE AMINOTRANSFERASE [5]: 80.8 u/L
BLOOD UREA NITROGEN [5]: 12.6 mg/dL
CARBON DIOXIDE [5]: 32.4 mmol/L
CHLORIDE [5]: 102 MEQ/L
CHOLESTEROL [5]: 79.8 mg/dL
CREATINE PHOSPHOKINASE [5]: 211.6 u/L
CREATININE [5]: 0.16 mg/dL
GLUCOSE [5]: 162.6 mg/dL
LACTATE DEHYDROGENASE [5]: 154.6 u/L
LIPASE [5]: 9.6 u/L
PHOSPHORUS [5]: 9.92 mg/dL
POTASSIUM [5]: 5.73 MEQ/L
SODIUM [5]: 143.6 MEQ/L
TOTAL BILIRUBIN [5]: 0.22 mg/dL
TOTAL PROTEIN [5]: 6.56 G/DL
URIC ACID [5]: 0.94 mg/dL
